Source: patent US20240228647A1, “OFATUMUMAB FOR TREATING MULTIPLE SCLEROSIS IN ASIAN PATIENTS” (Novartis AG, priority 2021, published 2024)

Tested on: patients with RMS
Assay: Time to confirmed disability worsening (3mCDW, 6mCDW), Phase III Studies I and II
Assay type: in vivo, human
Details: for 3mCDW event rate n/N (%) / 3mCDW events n / 6mCDW event rate n/N (%) / 6mCDW events n: FAS
Method: Ofatumumab was investigated in 1882 patients with RMS from two identical Phase III randomized, double-blind, double-dummy, active-comparator controlled, parallel-group, multicenter studies of identical design (Study I and Study II). Patients were randomized to receive either ofatumumab, OMB (20 mg s.c injections every 4 weeks, after an initial loading regimen of 3 injections on Day 1, 7, and 14), or teriflunomide, TER (14 mg p.o. once a day) as active comparator. For brevity, the teriflunomide data are not shown hereinafter.
The maximum treatment duration for an individual patient was 30 study months (approximately 2.5 years). The two studies included a total of 71 patients of Asian race (36 patients in ofatumumab and 35 patients in teriflunomide treatment groups). This Example also includes the Asian patients data from oncology studies (Study A and Study B), as supportive data, where required.
Time to 3 mCDW and 6 mCDW were key secondary efficacy endpoints in the pivotal Phase III studies.

ofatumumab [OMB]
3mCDW event rate n/N (%) (Asian (race)): (8.3) %
3mCDW events n (Asian (race)): 3/36
6mCDW event rate n/N (%) (Asian (race)): (8.3) %
6mCDW events n (Asian (race)): 3/36
3mCDW event rate n/N (%) (Rest of World (race)): (9.3) %
3mCDW events n (Rest of World (race)): 85/910
6mCDW event rate n/N (%) (Rest of World (race)): (7.5) %
6mCDW events n (Rest of World (race)): 68/910
3mCDW risk reduction compared with teriflunomide (overall population): 33.0%
6mCDW risk reduction compared with teriflunomide (overall population): 31.0%
